# Results from patent publication US20180071317A1, “USE OF AGENTS THAT ALTER THE PERITUMORAL ENVIRONMENT FOR THE TREATMENT OF CANCER” (SERVICIO ANDALUZ DE SALUD, priority 2011, published 2018).
# Columns and labels:
# Format in all cases: cell-based
# [1] = system: fibroblasts (PHF) cells co-cultured with human T lymphoma tumor (DERL-7); experiment: Marker expression (IHC) in PHF co-cultured with DERL-7 tumor cells; conditions: PHF co-cultured with DERL-7 + SP + NK1 antagonist
# Method: (§1) All cultures were maintained 48 hours, following which the same cells were included in paraffin blocks for subsequent analysis of the expression of different markers by immunohistochemistry (see Example 1). The primary antibodies used to perform immunohistochemical assays and their concentration are detailed in Example 2. All experiments were carried out sixfold. Analyzed markers in fibroblast cells (stromal cells) were: TGF-α, TGF-β1, TGF-β2, TGF-β3, SPARC, MMP-3, MMP-7, MMP-9, MMP-11, MMP-13 and MMP-14.
# [2] = system: fibroblasts (PHF) co-cultured with human glioma tumor cells (GAMG); experiment: Marker expression (IHC) in PHF co-cultured with GAMG tumor cells; conditions: co-culture with GAMG; SP 1 μM + antagonist 1 μM; 48 h;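 note: percentage of PHF fibroblasts positive for each marker, cultured in fresh plasma from a healthy donor, six replicates, with fibroblasts cultured alone as reference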
# Method: (§2) All cultures were maintained 48 hours, following which the same cells were included in paraffin blocks for subsequent analysis of the expression of different markers by immunohistochemistry (see Example 1). […] All experiments were carried out sixfold. Analyzed markers in fibroblast cells (stromal cells) were: TGF-α, TGF-β1, TGF-β2, TGF-β3, SPARC, MMP-3, MMP-7, MMP-9, MMP-11, MMP-13 and MMP-14.
# [3] = system: fibroblast cells in co-culture with cells isolated from primary human tumors; experiment: Marker expression (IHC) in fibroblasts co-cultured with primary human tumor cells (colon, pancreatic, lung carcinoma, glioma, multiple myeloma)
# [4] = system: co-cultures of tumor cells-endothelial cells (C-12210); experiment: Inhibition/survival in co-cultures of primary human tumor cells and endothelial cells; conditions: survival in reference to control, SP 1 μM, Aprepitant 1 μM
# Method: To check that the interaction of primary tumor cells extracted directly from human with human vascular endothelial cells, promotes the survival of both cell types, co-cultures were performed microvascular endothelial cells from juvenile foreskins (PromoCell GmbH, Sickingenstraβe 63/65, D-69126 Heidelberg, Germany; reference C-12210) with tumor cells obtained directly from primary human tumors.
# A total of 6 wells containing tumor cells were used as control for survival. Another 6 wells containing tumor cells were cultured with addition of endothelial cells.
# Subsequently, cells were embedded in paraffin for analysis by immunohistochemistry. In order to identify the different cell types and quantity of them [They were labelled with primary antibodies specific for human endothelial cells (anti-CD31), carcinoma cells (Anti-Cytokeratins Spread Spectrum), glioma (Anti-glial fibrillary acidic protein), fibrosarcoma and malignant fibrous histiocytoma (Anti-Smooth Muscle Actin), Ewing sarcoma (Anti-CD99), Melanoma (Anti-HMB45), leukemias and lymphomas (Anti-Common Antigen Leucitario) and myeloma (anti CD 138). All antibodies are distributed by Dako and were used at the same concentration which is supplied (supplied pre-diluted—“ready to use”).
# [5] = system: fibroblasts (PHF) co-cultured with tumor cells of human gastric adenocarcinoma (23132/87); experiment: Marker expression (IHC) in PHF co-cultured with 23132/87 tumor cells; conditions: co-culture with 23132/87; SP 1 μM + antagonist 1 μM; 48 h;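 note: cultures grown in fresh plasma from a healthy human donor, values give the percentage of PHF fibroblasts positive for the marker, each experiment run in six replicates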
# Method: as §1
# [6] = system: fibroblasts (PHF) co-cultured with tumor cells in human prostate carcinoma (22Rv1); experiment: Marker expression (IHC) in PHF co-cultured with 22Rv1 tumor cells; conditions: co-culture with 22Rv1; SP 1 μM + antagonist 1 μM; 48 h;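 note: cultures grown on fresh plasma from a healthy donor, each experiment run sixfold, values give the percentage of fibroblasts positive for the given marker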
# Method: as §2
# [7] = Primary tumor cells (colon carcinoma) co-cultured + fibroblast + SP (1 μM) + NK1 antagonist 1 μM
# [8] = co-culture with cells isolated from glioma, SP 1 μM + antagonist 1 μM
# [9] = co-culture with cells isolated from lung cancer, SP 1 μM + antagonist 1 μM
# [10] = co-culture with cells isolated from multiple myeloma, SP 1 μM + antagonist 1 μM
# [11] = co-culture with cells isolated from pancreatic carcinoma, SP 1 μM + antagonist 1 μM
# [12] = Carcinoma of lung, (Small cell carcinoma in Table 36)
# [13] = Carcinoma of lung, Non Small Cell Carcinoma in Table 36
# [14] = Carcinoma of thyroid, (Follicular Carcinoma in Table 36)
# [15] = Carcinoma of thyroid, (Papillary Carcinoma in Table 36)
structure (smiles),measurement,setting,value
C[C@@H](O[C@H]1OCCN(Cc2n[nH]c(=O)[nH]2)[C@H]1c1ccc(F)cc1)c1cc(C(F)(F)F)cc(C(F)(F)F)c1 [Aprepitant],cells expressing MMP-3,[1],0%
same,cells expressing MMP-7,[1],0%
same,cells expressing MMP-9,[1],0%
same,cells expressing MMP-11,[1],0%
same,cells expressing MMP-13,[1],0%
same,cells expressing MMP-14,[1],0%
same,cells expressing SPARC,[1],0%
same,cells expressing TGF-α,[1],0%
same,cells expressing TGF-β1,[1],0%
same,cells expressing TGF-β2,[1],0%
same,cells expressing TGF-β3,[1],0%
same,PHF cells expressing MMP-3,[2],0%
same,PHF cells expressing MMP-7,[2],0%
same,PHF cells expressing MMP-9,[2],0%
same,PHF cells expressing MMP-11,[2],0%
same,PHF cells expressing MMP-13,[2],0%
same,PHF cells expressing MMP-14,[2],0%
same,PHF cells expressing SPARC,[2],0%
same,PHF cells expressing TGF-α,[2],0%
same,PHF cells expressing TGF-β1,[2],0%
same,PHF cells expressing TGF-β2,[2],0%
same,PHF cells expressing TGF-β3,[2],0%
same,Percentage of fibroblast cells which expressed MMP-3,[3]; [7],0%
same,Percentage of fibroblast cells which expressed MMP-7,[3]; [7],0%
same,Percentage of fibroblast cells which expressed MMP-9,[3]; [7],0%
same,Percentage of fibroblast cells which expressed MMP-11,[3]; [7],0%
same,Percentage of fibroblast cells which expressed MMP-13,[3]; [7],0%
same,Percentage of fibroblast cells which expressed MMP-14,[3]; [7],0%
same,Percentage of fibroblast cells which expressed SPARC,[3]; [7],0%
same,Percentage of fibroblast cells which expressed TGFα,[3]; [7],0%
same,Percentage of fibroblast cells which expressed TGFβ1,[3]; [7],0%
same,Percentage of fibroblast cells which expressed TGFβ2,[3]; [7],0%
same,Percentage of fibroblast cells which expressed TGFβ3,[3]; [7],0%
same,Percentage of fibroblast cells which expressed MMP-3,[3]; [8],0%
same,Percentage of fibroblast cells which expressed MMP-7,[3]; [8],0%
same,Percentage of fibroblast cells which expressed MMP-9,[3]; [8],0%
same,Percentage of fibroblast cells which expressed MMP-11,[3]; [8],0%
same,Percentage of fibroblast cells which expressed MMP-13,[3]; [8],0%
same,Percentage of fibroblast cells which expressed MMP-14,[3]; [8],0%
same,Percentage of fibroblast cells which expressed SPARC,[3]; [8],0%
same,Percentage of fibroblast cells which expressed TGFα,[3]; [8],0%
same,Percentage of fibroblast cells which expressed TGFβ1,[3]; [8],0%
same,Percentage of fibroblast cells which expressed TGFβ2,[3]; [8],0%
same,Percentage of fibroblast cells which expressed TGFβ3,[3]; [8],0%
same,Percentage of fibroblast cells which expressed MMP-3,[3]; [9],0%
same,Percentage of fibroblast cells which expressed MMP-7,[3]; [9],0%
same,Percentage of fibroblast cells which expressed MMP-9,[3]; [9],0%
same,Percentage of fibroblast cells which expressed MMP-11,[3]; [9],0%
same,Percentage of fibroblast cells which expressed MMP-13,[3]; [9],0%
same,Percentage of fibroblast cells which expressed MMP-14,[3]; [9],0%
same,Percentage of fibroblast cells which expressed SPARC,[3]; [9],0%
same,Percentage of fibroblast cells which expressed TGFα,[3]; [9],0%
same,Percentage of fibroblast cells which expressed TGFβ1,[3]; [9],0%
same,Percentage of fibroblast cells which expressed TGFβ2,[3]; [9],0%
same,Percentage of fibroblast cells which expressed TGFβ3,[3]; [9],0%
same,Percentage of fibroblast cells which expressed MMP-3,[3]; [10],0%
same,Percentage of fibroblast cells which expressed MMP-7,[3]; [10],0%
same,Percentage of fibroblast cells which expressed MMP-9,[3]; [10],0%
same,Percentage of fibroblast cells which expressed MMP-11,[3]; [10],0%
same,Percentage of fibroblast cells which expressed MMP-13,[3]; [10],0%
same,Percentage of fibroblast cells which expressed MMP-14,[3]; [10],0%
same,Percentage of fibroblast cells which expressed SPARC,[3]; [10],0%
same,Percentage of fibroblast cells which expressed TGFα,[3]; [10],0%
same,Percentage of fibroblast cells which expressed TGFβ1,[3]; [10],0%
same,Percentage of fibroblast cells which expressed TGFβ2,[3]; [10],0%
same,Percentage of fibroblast cells which expressed TGFβ3,[3]; [10],0%
same,Percentage of fibroblast cells which expressed MMP-3,[3]; [11],0%
same,Percentage of fibroblast cells which expressed MMP-7,[3]; [11],0%
same,Percentage of fibroblast cells which expressed MMP-9,[3]; [11],0%
same,Percentage of fibroblast cells which expressed MMP-11,[3]; [11],0%
same,Percentage of fibroblast cells which expressed MMP-13,[3]; [11],0%
same,Percentage of fibroblast cells which expressed MMP-14,[3]; [11],0%
same,Percentage of fibroblast cells which expressed SPARC,[3]; [11],0%
same,Percentage of fibroblast cells which expressed TGFα,[3]; [11],0%
same,Percentage of fibroblast cells which expressed TGFβ1,[3]; [11],0%
same,Percentage of fibroblast cells which expressed TGFβ2,[3]; [11],0%
same,Percentage of fibroblast cells which expressed TGFβ3,[3]; [11],0%
same,Endothelial cells co-cultured with tumor cells + SP + Aprepitant,[4]; Carcinoma of Colon,57 ± 3%
same,Tumor cells co-cultured with endothelial cells + SP + Aprepitant,[4]; Carcinoma of Colon,61 ± 3%
same,Endothelial cells co-cultured with tumor cells + SP + Aprepitant,[4]; Carcinoma of Pancreas,52 ± 4%
same,Tumor cells co-cultured with endothelial cells + SP + Aprepitant,[4]; Carcinoma of Pancreas,46 ± 6%
same,Endothelial cells co-cultured with tumor cells + SP + Aprepitant,[4]; Carcinoma of breast,56 ± 6%
same,Tumor cells co-cultured with endothelial cells + SP + Aprepitant,[4]; Carcinoma of breast,56 ± 3%
same,Endothelial cells co-cultured with tumor cells + SP + Aprepitant,[4]; Carcinoma of cervix,45 ± 3%
same,Tumor cells co-cultured with endothelial cells + SP + Aprepitant,[4]; Carcinoma of cervix,46 ± 3%
same,Endothelial cells co-cultured with tumor cells + SP + Aprepitant,[4]; Carcinoma of endometrial,57 ± 4%
same,Tumor cells co-cultured with endothelial cells + SP + Aprepitant,[4]; Carcinoma of endometrial,49 ± 3%
same,Endothelial cells co-cultured with tumor cells + SP + Aprepitant,[4]; [12],46 ± 7%
same,Tumor cells co-cultured with endothelial cells + SP + Aprepitant,[4]; [12],63 ± 3%
same,Endothelial cells co-cultured with tumor cells + SP + Aprepitant,[4]; [13],43 ± 4%
same,Tumor cells co-cultured with endothelial cells + SP + Aprepitant,[4]; [13],65 ± 4%
same,Endothelial cells co-cultured with tumor cells + SP + Aprepitant,[4]; Carcinoma of ovarian,49 ± 5%
same,Tumor cells co-cultured with endothelial cells + SP + Aprepitant,[4]; Carcinoma of ovarian,54 ± 4%
same,Endothelial cells co-cultured with tumor cells + SP + Aprepitant,[4]; Carcinoma of prostate,54 ± 4%
same,Tumor cells co-cultured with endothelial cells + SP + Aprepitant,[4]; Carcinoma of prostate,47 ± 5%
same,Endothelial cells co-cultured with tumor cells + SP + Aprepitant,[4]; Carcinoma of stomach,65 ± 2%
same,Tumor cells co-cultured with endothelial cells + SP + Aprepitant,[4]; Carcinoma of stomach,54 ± 5%
same,Endothelial cells co-cultured with tumor cells + SP + Aprepitant,[4]; [14],45 ± 3%
same,Tumor cells co-cultured with endothelial cells + SP + Aprepitant,[4]; [14],46 ± 6%
same,Endothelial cells co-cultured with tumor cells + SP + Aprepitant,[4]; [15],56 ± 6%
same,Tumor cells co-cultured with endothelial cells + SP + Aprepitant,[4]; [15],56 ± 4%
same,Endothelial cells co-cultured with tumor cells + SP + Aprepitant,[4]; Fibrosarcoma,45 ± 6%
same,Tumor cells co-cultured with endothelial cells + SP + Aprepitant,[4]; Fibrosarcoma,55 ± 6%
same,Endothelial cells co-cultured with tumor cells + SP + Aprepitant,[4]; Glioma,56 ± 5%
same,Tumor cells co-cultured with endothelial cells + SP + Aprepitant,[4]; Glioma,49 ± 4%
same,Endothelial cells co-cultured with tumor cells + SP + Aprepitant,[4]; Hodgkin's Lymphoma,48 ± 4%
same,Tumor cells co-cultured with endothelial cells + SP + Aprepitant,[4]; Hodgkin's Lymphoma,74 ± 6%
same,Endothelial cells co-cultured with tumor cells + SP + Aprepitant,[4]; Leukemia B,46 ± 5%
same,Tumor cells co-cultured with endothelial cells + SP + Aprepitant,[4]; Leukemia B,54 ± 6%
same,Endothelial cells co-cultured with tumor cells + SP + Aprepitant,[4]; Leukemia T,56 ± 6%
same,Tumor cells co-cultured with endothelial cells + SP + Aprepitant,[4]; Leukemia T,56 ± 5%
same,Endothelial cells co-cultured with tumor cells + SP + Aprepitant,[4]; Malignant fibrous histiocytoma,56 ± 6%
same,Tumor cells co-cultured with endothelial cells + SP + Aprepitant,[4]; Malignant fibrous histiocytoma,44 ± 5%
same,Endothelial cells co-cultured with tumor cells + SP + Aprepitant,[4]; Melanoma,56 ± 6%
same,Tumor cells co-cultured with endothelial cells + SP + Aprepitant,[4]; Melanoma,46 ± 5%
same,Endothelial cells co-cultured with tumor cells + SP + Aprepitant,[4]; Myeloma,54 ± 8%
same,Tumor cells co-cultured with endothelial cells + SP + Aprepitant,[4]; Myeloma,64 ± 3%
same,Endothelial cells co-cultured with tumor cells + SP + Aprepitant,[4]; Neuroblastoma,49 ± 4%
same,Tumor cells co-cultured with endothelial cells + SP + Aprepitant,[4]; Neuroblastoma,55 ± 6%
same,Endothelial cells co-cultured with tumor cells + SP + Aprepitant,[4]; Non-Hodgkin's Lymphoma B,67 ± 5%
same,Tumor cells co-cultured with endothelial cells + SP + Aprepitant,[4]; Non-Hodgkin's Lymphoma B,49 ± 6%
same,Endothelial cells co-cultured with tumor cells + SP + Aprepitant,[4]; Non-Hodgkin's Lymphoma T,49 ± 4%
same,Tumor cells co-cultured with endothelial cells + SP + Aprepitant,[4]; Non-Hodgkin's Lymphoma T,83 ± 8%
same,Endothelial cells co-cultured with tumor cells + SP + Aprepitant,[4]; Renal carcinoma,56 ± 2%
same,Tumor cells co-cultured with endothelial cells + SP + Aprepitant,[4]; Renal carcinoma,53 ± 3%
same,Endothelial cells co-cultured with tumor cells + SP + Aprepitant,[4]; Sarcoma of Ewing,45 ± 5%
same,Tumor cells co-cultured with endothelial cells + SP + Aprepitant,[4]; Sarcoma of Ewing,45 ± 7%
same,PHF cells expressing MMP-3,[5],0%
same,PHF cells expressing MMP-7,[5],0%
same,PHF cells expressing MMP-9,[5],0%
same,PHF cells expressing MMP-11,[5],0%
same,PHF cells expressing MMP-13,[5],0%
same,PHF cells expressing MMP-14,[5],0%
same,PHF cells expressing SPARC,[5],0%
same,PHF cells expressing TGF-α,[5],0%
same,PHF cells expressing TGF-β1,[5],0%
same,PHF cells expressing TGF-β2,[5],0%
same,PHF cells expressing TGF-β3,[5],0%
same,PHF cells expressing MMP-3,[6],0%
same,PHF cells expressing MMP-7,[6],0%
same,PHF cells expressing MMP-9,[6],0%
same,PHF cells expressing MMP-11,[6],0%
same,PHF cells expressing MMP-13,[6],0%
same,PHF cells expressing MMP-14,[6],0%
same,PHF cells expressing SPARC,[6],0%
same,PHF cells expressing TGF-α,[6],0%
same,PHF cells expressing TGF-β1,[6],0%
same,PHF cells expressing TGF-β2,[6],0%
same,PHF cells expressing TGF-β3,[6],0%
